Measured values: publication PMC8286840, “Identifying SARS-CoV-2 antiviral compounds by screening for small molecule inhibitors of Nsp3 papain-like protease” (Biochemical Journal, 2021)
Counter-ions that a name gives are not always drawn. Like-named read-outs stand apart in the source and are kept apart here.

Key:
[1] = target: T1, SARS-CoV-2 PLpro (nsp3 1564–1878) (Severe acute respiratory syndrome coronavirus 2, UniProt P0DTD1); experiment: biochemical; set-up: FRET-quenched peptide (Pro3) cleavage by PLpro, 10 min pre-incubation, slope over 20 min, normalised to no-compound control; details: low concentration screen, read-out: % of control remaining
[2] = target: T1, SARS-CoV-2 PLpro (nsp3 1564–1878); experiment: biochemical; set-up: FRET-quenched peptide (Pro3) cleavage by PLpro, 10 min pre-incubation, slope over 20 min, normalised to no-compound control; details: high concentration screen, read-out: % of control remaining

`CCCCCCCN(CC)CCCC(O)c1ccc(NS(C)(=O)=O)cc1` (centres unmarked) [Ibutilide fumarate] showed a remaining activity at 1.25 µM ([1]; Well no.=5096) of 93.1% and a remaining activity at 3.75 µM ([2]; Well no.=5096) of 102%.

`COc1ccc(-c2oc3c(CC=C(C)C)c(O[C@@H]4O[C@H](CO)[C@@H](O)[C@H](O)[C@H]4O)cc(O)c3c(=O)c2O[C@@H]2O[C@@H](C)[C@H](O)[C@@H](O)[C@H]2O)cc1` [Icariin] was tested, and the remaining activity at 1.25 µM ([1]; Well no.=5200) was 99.9% and the remaining activity at 3.75 µM ([2]; Well no.=5200) was 100%.

For `O=C1NC(c2cccc([N+](=O)[O-])c2)=CCN1c1ccccc1O` [Icilin], the remaining activity at 1.25 µM ([1]; Well no.=5682) was 83.3% and the remaining activity at 3.75 µM ([2]; Well no.=5682) was 83.5%.

`C#Cc1cccc(Nc2ncnc3cc4c(cc23)OCCOCCOCCO4)c1` [Icotinib] was tested, and the remaining activity at 1.25 µM ([1]; Well no.=5229) was 92.9% and the remaining activity at 3.75 µM ([2]; Well no.=5229) was 88.7%.

Molecule `CC(=O)[C@]1(O)Cc2c(O)c3c(c(O)c2[C@@H](O[C@H]2C[C@H](N)[C@H](O)[C@H](C)O2)C1)C(=O)c1ccccc1C3=O` [Idarubicin] has a remaining activity at 1.25 µM ([1]; Well no.=574) of 103%, a remaining activity at 1.25 µM ([1]; Well no.=1613) of 102% and a remaining activity at 3.75 µM ([2]; Well no.=574) of 102%. For the same molecule, the remaining activity at 3.75 µM ([2]; Well no.=1613) was 103%.

Work on `COc1cc(C(=O)O)ccc1NC(=O)[C@@H]1N[C@@H](CC(C)(C)C)[C@](C#N)(c2ccc(Cl)cc2F)[C@H]1c1cccc(Cl)c1F` [Idasanutlin] yielded a remaining activity at 1.25 µM ([1]; Well no.=7114) of 101%, a remaining activity at 1.25 µM ([1]; Well no.=7554) of 92.9% and a remaining activity at 3.75 µM ([2]; Well no.=7114) of 101%. The remaining activity at 3.75 µM ([2]; Well no.=7554) was 93.9%.

Molecule `c1ccc2c(c1)OCC(C1=NCCN1)O2` (centres unmarked) [Idazoxan hydrochloride] has a remaining activity at 1.25 µM ([1]; Well no.=821) of 105% and a remaining activity at 3.75 µM ([2]; Well no.=821) of 102%.

`COC1=C(OC)C(=O)C(CCCCCCCCCCO)=C(C)C1=O` [Idebenone] was tested, and the remaining activity at 1.25 µM ([1]; Well no.=1616) was 103%, the remaining activity at 1.25 µM ([1]; Well no.=3859) was 104% and the remaining activity at 3.75 µM ([2]; Well no.=1616) was 99.2%. For the same molecule, the remaining activity at 3.75 µM ([2]; Well no.=3859) was 105%.

In the case of `O=c1[nH]c(=O)n([C@H]2C[C@H](O)[C@@H](CO)O2)cc1I` [Idoxuridine], the remaining activity at 1.25 µM ([1]; Well no.=2218) is reported as 98.6%, the remaining activity at 1.25 µM ([1]; Well no.=8851) is reported as 105% and the remaining activity at 3.75 µM ([2]; Well no.=2218) is reported as 102%. The remaining activity at 3.75 µM ([2]; Well no.=8851) was 107%.

`CC(C(O)c1ccc(O)cc1)N1CCC(Cc2ccccc2)CC1` (centres unmarked) [Ifenprodil tartrate] showed a remaining activity at 1.25 µM ([1]; Well no.=867) of 103%, a remaining activity at 1.25 µM ([1]; Well no.=1685) of 102% and a remaining activity at 3.75 µM ([2]; Well no.=867) of 103%. For the same molecule, the remaining activity at 3.75 µM ([2]; Well no.=1685) was 104%.

`O=P1(NCCCl)OCCCN1CCCl` (centres unmarked) [Ifosfamide] was tested, and the remaining activity at 1.25 µM ([1]; Well no.=2220) was 97.2% and the remaining activity at 3.75 µM ([2]; Well no.=2220) was 98.6%.

`CC[C@H](C)[C@H](N)C(=O)N1CCC[C@H]1C(=O)N[C@H](C(=O)O)[C@@H](C)CC` [Ile-Pro-Ile] gave a remaining activity at 1.25 µM ([1]; Well no.=5849) of 100% and a remaining activity at 3.75 µM ([2]; Well no.=5849) of 99.6%.

`CNC(=O)[C@H](Cc1c[nH]c2ccccc12)NC(=O)[C@@H](CC(=O)NO)CC(C)C` [Ilomastat (GM6001, Galardin)] was tested, and the remaining activity at 1.25 µM ([1]; Well no.=9030) was 101% and the remaining activity at 3.75 µM ([2]; Well no.=9030) was 94.4%.

With `COc1cc(C(C)=O)ccc1OCCCN1CCC(c2noc3cc(F)ccc23)CC1` [Iloperidone] the remaining activity at 1.25 µM ([1]; Well no.=7333) was 102% and the remaining activity at 3.75 µM ([2]; Well no.=7333) was 91.9%.

Molecule `Cc1ccc(NC(=O)c2ccc(CN3CCN(C)CC3)cc2)cc1Nc1nccc(-c2cccnc2)n1` [Imatinib] has a remaining activity at 1.25 µM ([1]; Well no.=1611) of 102%, a remaining activity at 1.25 µM ([1]; Well no.=2839) of 99.7% and a remaining activity at 3.75 µM ([2]; Well no.=2839) of 102%.

Molecule `O=C1CCC(c2ccc(-n3ccnc3)cc2)=NN1` [Imazodan] has a remaining activity at 1.25 µM ([1]; Well no.=764) of 97.3% and a remaining activity at 3.75 µM ([2]; Well no.=764) of 97.7%.

`N=C(N)SCCc1c[nH]cn1` [Imetit dihydrobromide] gave a remaining activity at 1.25 µM ([1]; Well no.=779) of 94.3% and a remaining activity at 3.75 µM ([2]; Well no.=779) of 94.6%.

`Cc1nccn1CCC(C(N)=O)(c1ccccc1)c1ccccc1` [Imidafenacin] was tested, and the remaining activity at 1.25 µM ([1]; Well no.=6377) was 102% and the remaining activity at 3.75 µM ([2]; Well no.=6377) was 97.6%.

`CCOC(=O)[C@H](CCc1ccccc1)N[C@@H](C)C(=O)N1C(=O)N(C)C[C@H]1C(=O)O` [Imidapril (hydrochloride)] was tested, and the remaining activity at 1.25 µM ([1]; Well no.=7686) was 99.8% and the remaining activity at 3.75 µM ([2]; Well no.=7686) was 98%.

In the case of `CCOC(=O)[C@H](CCc1ccccc1)N[C@@H](C)C(=O)N1C(=O)N(C)C[C@H]1C(=O)O` [Imidapril hydrochloride], the remaining activity at 1.25 µM ([1]; Well no.=5696) is reported as 91.8% and the remaining activity at 3.75 µM ([2]; Well no.=5696) is reported as 92.9%.

Work on `CC(C)Oc1ccc(C(=O)Cn2ccnc2)cc1-n1c(CN2CCN(C(=O)COc3ccc(Cl)cc3)CC2)nc2ccccc2c1=O` [Imidazole ketone erastin] yielded a remaining activity at 1.25 µM ([1]; Well no.=6884) of 95.5% and a remaining activity at 3.75 µM ([2]; Well no.=6884) of 97%.

For `O=C(O)Cc1cnc[nH]1` [Imidazole-4-acetic acid hydrochloride], the remaining activity at 1.25 µM ([1]; Well no.=620) was 97.6% and the remaining activity at 3.75 µM ([2]; Well no.=620) was 101%.

Molecule `CCn1ccnc1CC1COc2ccccc2O1` (centres unmarked) [Imiloxan hydrochloride] has a remaining activity at 1.25 µM ([1]; Well no.=1063) of 97.9% and a remaining activity at 3.75 µM ([2]; Well no.=1063) of 97%.

Work on `C[C@@H](O)[C@H]1C(=O)N2C(C(=O)O)=C(SCCNC=N)C[C@H]12` [Imipenem] yielded a remaining activity at 1.25 µM ([1]; Well no.=1935) of 102%, a remaining activity at 1.25 µM ([1]; Well no.=5494) of 104% and a remaining activity at 3.75 µM ([2]; Well no.=1935) of 103%. For the same molecule, the remaining activity at 3.75 µM ([2]; Well no.=5494) was 104%.

`CN(C)CCCN1c2ccccc2CCc2ccccc21` [Imipramine hydrochloride] showed a remaining activity at 1.25 µM ([1]; Well no.=1061) of 100% and a remaining activity at 3.75 µM ([2]; Well no.=1061) of 97.7%.

In the case of `CC(C)Cn1cnc2c(N)nc3ccccc3c21` [Imiquimod], the remaining activity at 1.25 µM ([1]; Well no.=2222) is reported as 94%, the remaining activity at 1.25 µM ([1]; Well no.=8069) is reported as 109% and the remaining activity at 3.75 µM ([2]; Well no.=2222) is reported as 94.3%. It also gave a remaining activity at 3.75 µM ([2]; Well no.=8069) of 108%.

Molecule `C[C@H]1CC[C@@H]2N(C1)C[C@H]1[C@@H]3C[C@H]4[C@@H](CC(=O)[C@H]5C[C@@H](O)CC[C@@]54C)[C@@H]3CC[C@H]1[C@]2(C)O` [Imperialine] has a remaining activity at 1.25 µM ([1]; Well no.=3155) of 93.8% and a remaining activity at 3.75 µM ([2]; Well no.=3155) of 101%.

In the case of `CC(Nc1nc(N2CCCC2)nc2ccccc12)c1ccccc1` (centres unmarked) [Importazole], the remaining activity at 1.25 µM ([1]; Well no.=5622) is reported as 95.6% and the remaining activity at 3.75 µM ([2]; Well no.=5622) is reported as 96.8%.

Molecule `CCC(Sc1nnc2c(n1)[nH]c1ccccc12)C(=O)N1c2ccccc2Sc2ccccc21` (centres unmarked) [Inauhzin] has a remaining activity at 1.25 µM ([1]; Well no.=6158) of 100% and a remaining activity at 3.75 µM ([2]; Well no.=6158) of 91.7%.

Molecule `CCc1cc2c(cc1CC)CC(NC[C@H](O)c1ccc(O)c3[nH]c(=O)ccc13)C2` [Indacaterol (maleate)] has a remaining activity at 1.25 µM ([1]; Well no.=8199) of 105% and a remaining activity at 3.75 µM ([2]; Well no.=8199) of 95%.

In the case of `CCc1cc2c(cc1CC)CC(NC[C@H](O)c1ccc(O)c3[nH]c(=O)ccc13)C2` [Indacaterol Maleate], the remaining activity at 1.25 µM ([1]; Well no.=5323) is reported as 101% and the remaining activity at 3.75 µM ([2]; Well no.=5323) is reported as 98.4%.
